What was measured:
TmGH1 [1] = biological target: T1, TmGH1 (Thermotoga maritima, UniProt Q08638); experiment: TmGH1 inhibition; format: biochemical
T1 sequence (Q08638 1-446): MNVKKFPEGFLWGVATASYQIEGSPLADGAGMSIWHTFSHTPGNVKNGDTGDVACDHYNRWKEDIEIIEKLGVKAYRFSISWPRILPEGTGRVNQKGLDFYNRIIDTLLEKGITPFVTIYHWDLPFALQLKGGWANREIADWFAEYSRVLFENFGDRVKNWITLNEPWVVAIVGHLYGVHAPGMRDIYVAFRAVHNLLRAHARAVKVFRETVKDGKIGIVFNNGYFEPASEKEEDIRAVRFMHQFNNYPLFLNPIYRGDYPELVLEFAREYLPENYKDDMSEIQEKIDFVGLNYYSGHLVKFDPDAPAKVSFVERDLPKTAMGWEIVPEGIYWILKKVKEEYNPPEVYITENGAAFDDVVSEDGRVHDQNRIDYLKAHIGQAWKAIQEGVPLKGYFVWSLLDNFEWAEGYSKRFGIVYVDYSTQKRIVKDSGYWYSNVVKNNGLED

SsGH1 = biological target: T2, SsGH1 (Saccharolobus solfataricus, UniProt P22498); experiment: SsGH1 inhibition; format: biochemical, Sulfolobus solfataricus
T2 sequence (P22498 1-489): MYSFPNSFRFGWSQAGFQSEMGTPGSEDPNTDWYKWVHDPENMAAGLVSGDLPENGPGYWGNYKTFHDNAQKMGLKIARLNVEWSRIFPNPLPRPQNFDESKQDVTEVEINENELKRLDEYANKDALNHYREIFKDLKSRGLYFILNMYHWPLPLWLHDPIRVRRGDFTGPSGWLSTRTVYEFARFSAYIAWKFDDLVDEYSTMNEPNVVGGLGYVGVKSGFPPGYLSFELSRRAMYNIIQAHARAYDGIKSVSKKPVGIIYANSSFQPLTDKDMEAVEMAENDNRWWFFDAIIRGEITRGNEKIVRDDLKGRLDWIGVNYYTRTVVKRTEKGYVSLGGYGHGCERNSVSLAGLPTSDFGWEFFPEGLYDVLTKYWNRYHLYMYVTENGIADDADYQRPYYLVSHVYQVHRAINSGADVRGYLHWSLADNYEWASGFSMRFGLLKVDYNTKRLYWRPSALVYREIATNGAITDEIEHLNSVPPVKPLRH

BtMan2A = biological target: T3, BtMan2A (Bacteroides thetaiotaomicron, UniProt Q8AAK6); experiment: BtMan2A inhibition; format: biochemical; conditions: ratio of Ki for BtMan2A
T3 sequence (Q8AAK6 26-864): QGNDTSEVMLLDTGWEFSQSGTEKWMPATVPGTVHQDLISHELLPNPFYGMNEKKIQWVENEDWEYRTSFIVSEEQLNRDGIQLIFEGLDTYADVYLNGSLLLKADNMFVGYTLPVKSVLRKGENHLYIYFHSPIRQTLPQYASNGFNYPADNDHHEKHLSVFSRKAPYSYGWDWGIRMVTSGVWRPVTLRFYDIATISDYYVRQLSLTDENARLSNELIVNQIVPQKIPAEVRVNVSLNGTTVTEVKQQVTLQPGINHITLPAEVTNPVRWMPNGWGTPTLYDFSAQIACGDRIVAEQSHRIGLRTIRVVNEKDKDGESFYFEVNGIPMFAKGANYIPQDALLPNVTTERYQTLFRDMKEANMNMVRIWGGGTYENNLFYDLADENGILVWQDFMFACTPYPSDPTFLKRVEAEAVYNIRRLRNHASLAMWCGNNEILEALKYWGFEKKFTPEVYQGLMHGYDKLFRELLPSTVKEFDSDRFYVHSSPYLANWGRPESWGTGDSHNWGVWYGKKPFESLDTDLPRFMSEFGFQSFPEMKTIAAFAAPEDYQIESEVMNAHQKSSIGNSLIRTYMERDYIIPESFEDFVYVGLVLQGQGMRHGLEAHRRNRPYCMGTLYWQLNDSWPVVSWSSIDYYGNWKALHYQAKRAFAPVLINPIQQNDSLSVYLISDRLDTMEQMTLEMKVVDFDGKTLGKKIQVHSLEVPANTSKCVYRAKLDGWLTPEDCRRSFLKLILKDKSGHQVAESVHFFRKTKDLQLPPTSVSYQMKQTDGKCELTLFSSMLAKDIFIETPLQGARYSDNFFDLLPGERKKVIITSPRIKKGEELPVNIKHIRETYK

TmGH1, SsGH1 and BtMan2A = format: biochemical; conditions: 3 vs 4 (TmGH1, SsGH1), 7 vs 8 (BtMan2A)
TmGH1 [2] = biological target: T1, TmGH1; conditions: cited from earlier work

SMILES	Ki (TmGH1 [1])	Ki (SsGH1)	Fold greater potency over 1-deoxymannojirimycin 6 (BtMan2A)	Fold better inhibitor than the isosteric compound with the gt conformation (TmGH1, SsGH1 and BtMan2A)	Fold better inhibitor than 1-deoxynojirimycin 2 (TmGH1 [2])
OC[C@H]1NC[C@H](O)[C@@H](O)[C@@H]1O [Compound 2, 1‐deoxynojirimycin, reference compound]	5.4 ± 0.5 µM	3.1 ± 0.2 µM	–	–	–
C[C@H](O)[C@H]1NC[C@@H](O)[C@@H](O)[C@@H]1O.Cl [Compound 7]	–	–	27 fold	between six‐ and ten‐fold	–
O[C@H]1[C@H](O)[C@@H](O)CN2CC[C@H](O)[C@H]12 [Compound 1, castanospermine]	–	–	–	–	four‐fold
C[C@H](O)[C@H]1NC[C@H](O)[C@@H](O)[C@@H]1O.Cl [Compound 3]	16 ± 2 µM	17 ± 1 µM	–	between six‐ and ten‐fold	–
C[C@@H](O)[C@H]1NC[C@H](O)[C@@H](O)[C@@H]1O [Compound 4]	135 ± 11 µM	105 ± 10 µM	–	–	–

Reference: PMC9908843 (Angewandte Chemie (International Ed. in English), 2023)
